# Paper PMC6010079, “Inhibition of dengue virus replication by novel inhibitors of RNA-dependent RNA polymerase and protease activities” (Journal of Enzyme Inhibition and Medicinal Chemistry, 2017)
# Where “and” joins values, the source holds several entries; their conditions need not be identical. Equal values may be shown once. Read-outs that look alike come from different tables or passages of the source.
# Columns and labels:
# [1] = Cell cytotoxicity assay (MTS); format: cell-based; conditions: human, Huh-7 cells, 3 days incubation, read-out: CC50 (half maximal cytotoxicity concentration)
# Description: The Huh-7 cells were seeded in 96-well and treated with test compound at concentration of 0, 10, 25, 50, 100, 150 and 200 µM. After 3 days incubation, the cell viability was determined by CellTiter 96 AQueous One Solution Cell Proliferation Assay (MTS assay) as previously reported. Briefly, the MTS assay buffer was added to the cultured plate following removal of the culture medium. After 2 h of incubation at 37 °C, the absorbance at 492 nm was measured. The cell viability was calculated from non-linear regression curve fitting using GraphPad Prism7. The zero dose was defined as 100%. Results were obtained from three independent experiments.
# DENV-2 NS5 RdRp [2] = biological target: T1, DENV-2 NS5 RdRp (Dengue virus type 2, UniProt P29990); assay: Enzyme-based RdRp activity assay (FAPA); format: biochemical; parameters: the supernatant containing His-tagged DENV-2 NS5 protein; His; made in house; host or cells: Sf9 insect cells (baculovirus vAc-DENV-NS5); conditions: 100 nM DENV NS5 protein, (−) 3′UTR RNA, BBT-ATP, 25 °C, 60 min
# T1 sequence (P29990 2492-3391): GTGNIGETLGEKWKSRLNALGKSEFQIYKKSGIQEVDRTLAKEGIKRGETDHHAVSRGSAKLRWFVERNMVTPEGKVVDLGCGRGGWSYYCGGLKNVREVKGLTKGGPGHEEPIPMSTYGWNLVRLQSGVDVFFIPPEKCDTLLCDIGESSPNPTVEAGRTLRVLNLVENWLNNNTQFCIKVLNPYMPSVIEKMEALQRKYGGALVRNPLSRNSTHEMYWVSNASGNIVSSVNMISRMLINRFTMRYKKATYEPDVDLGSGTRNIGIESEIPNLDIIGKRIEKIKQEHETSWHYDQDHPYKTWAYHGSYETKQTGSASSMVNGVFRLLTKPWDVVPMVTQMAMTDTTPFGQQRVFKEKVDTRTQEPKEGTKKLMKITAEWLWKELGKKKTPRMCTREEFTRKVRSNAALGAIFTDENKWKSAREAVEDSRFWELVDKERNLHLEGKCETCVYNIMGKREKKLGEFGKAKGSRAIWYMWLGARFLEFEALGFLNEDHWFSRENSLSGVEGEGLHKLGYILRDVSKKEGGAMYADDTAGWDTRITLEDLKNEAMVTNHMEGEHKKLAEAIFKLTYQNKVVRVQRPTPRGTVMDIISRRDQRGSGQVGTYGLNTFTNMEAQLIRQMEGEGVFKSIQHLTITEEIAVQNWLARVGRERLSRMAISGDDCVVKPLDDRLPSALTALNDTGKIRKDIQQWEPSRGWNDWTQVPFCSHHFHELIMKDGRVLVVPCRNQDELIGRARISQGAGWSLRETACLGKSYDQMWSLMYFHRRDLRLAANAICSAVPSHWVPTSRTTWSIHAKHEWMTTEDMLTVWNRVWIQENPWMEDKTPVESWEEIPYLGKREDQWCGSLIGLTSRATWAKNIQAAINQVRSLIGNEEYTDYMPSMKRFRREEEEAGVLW
# Description: The DENV-2 NS5 protein purification was performed as previously described. Briefly, Sf9 cells were infected by the recombinant baculovirus vAc-DENV-NS5 at an MOI of 10 for 3 days. The cells were pelleted by centrifugation at 1000×g for 5 min at 4 °C and washed twice with phosphate-buffered saline (PBS). The cells were suspended in 5 mL of binding buffer (20 mM sodium phosphate, pH 7.5, 300 mM NaCl, 20 mM imidazole) containing protease inhibitor cocktail, and then disrupted by sonication. After centrifugation, the supernatant containing His-tagged DENV-2 NS5 protein was subjected to metal affinity chromatography employing the AKTA prime protein purification system. The eluted DENV-2 NS5 protein was concentrated by an Amicon Ultra-15 30 k centrifugal filter device[36] and then dialysed against PBS overnight at 4 °C.
# (§1) The cell-based experiments were performed as previously described. Briefly, the Huh-7 cells were transfected with 0.5 µg of p(+)RLuc-(–)DV-UTRΔC-FLuc and DENV NS5 expression vector pcDNA-NS5-Myc followed by compound treatment for 3 days. The RLuc and FLuc activities were analysed by Dual-Glo Luciferase Assay System[37]. The enzyme-based fluorescence-based alkaline phosphatase-coupled polymerase assay (FAPA) was performed as previously described. Briefly, the template was amplified from the cDNA of DENV-2 minus strand 3′-UTR and its RNA was synthesised by the T7 Megascript kit[38]. The 100 nM DENV NS5 protein was incubated with 1, 5 or 10 µM test compound, 100 nM (−) 3′-UTR RNA, 20 µM CTP, GTP, UTP and 20 µM BBT-ATP (Jena Bioscience) in a total volume of 30 µL in assay buffer (50 mM Tris-HCl, pH 7.5, 10 mM KCl, 1 mM MgCl2, 0.3 mM MnCl2, 0.001% Triton X-100 and 10 µM cysteine) at 25 °C for 60 min. The 30 µL of 2.5× stop buffer (200 mM NaCl, 25 mM MgCl2, 1.5 M diethanolamine, pH 10) with 25 nM calf intestinal alkaline phosphatase (Promega) was added to the reaction after 60-min incubation. The fluorescence signal was measured at excitation wavelength of 422 nm and emission wavelength of 566 nm, respectively.
# DENV-2 [3] = assay: Anti-DENV activity in DENV-infected ICR-suckling mouse model; format: in vivo; conditions: 6-day-old ICR-suckling mice; for Clinical scores and body weight (DENV-induced pathology): 2.5 × 10^5 pfu DENV-2, within 4 to 6 dpi; for Survival rate: DENV-2, compared to untreated mice
# From the text: Breeder ICR mice were purchased from BioLasco Taiwan Co. Ltd. The experimental protocol was approved by the Animal Research Committee of Kaohsiung Medical University of Taiwan (IACUC, protocol number 102177). All mice received humane care and fed with standard rodent chew and water ad libitum. Mice were kept under a standard laboratory condition following the Animal Use Protocol of Kaohsiung Medical University. The 6-day-old ICR-suckling mice were intracerebrally injected with DENV-2 followed by intracerebrally injecting saline or test compound at 1, 3, 5 days postinfection (dpi). […] The body weight, clinical scores and survival rate were recorded every day. The mice were sacrificed at 6 dpi.
# To access the antiviral activity of compound 3 and 4in vivo, 6-day-old ICR-suckling mice were inoculated with 2.5 × 10^5 pfu of DENV-2 by intracerebral injection and then were administered with compound 3 (10 mg/kg) or 4 (1 mg/kg) by intracerebral injection at 1-, 3- and 5-day postinfection (dpi); inoculation of heat-inactivated DENV-2 (iDENV) served as a mock control.
# DENV-2 [4] = assay: Anti-DENV RNA activity: RT-qPCR of DENV RNA in DENV-2-infected Huh-7 cells; format: cell-based, DENV-2 (DENV type-2 strain 16681); conditions: for SI (selectivity index, CC50/EC50 ratio): CC50 in Huh-7 / EC50 DENV-2 RNA
# Description: Huh-7 cells were seeded in 24-well plate and infected DENV at an MOI of 0.2 for 2 h and followed by test compound treatment at concentration of 0, 1, 5, 10, 25, 50 and 100 µM for 3 days. The total cellular RNA was harvested by RNA extraction kit[32] following manufacturer’s instrument. DENV RNA and cellular mRNA levels were determined by quantitative real-time reverse-transcription polymerase chain reaction (RT-qPCR) with specific primers. The DENV RNA level was normalised by cellular glyceraldehydes-3-phosphate dehydrogenase (GAPDH) mRNA level. The relative DENV RNA level was calculated by StepOne™ Software v2.2.2 (Applied Biosystems, Foster City, CA, USA) following normalisation of cellular glyceraldehydes-3-phosphate dehydrogenase (GAPDH) mRNA level. The zero dose was defined as 100%. The EC50 values were calculated from non-linear regression curve fitting using GraphPad Prism7 software (San Diego, CA, USA). Results were obtained from three independent experiments.
# DENV-2 NS5 RdRp [5] = biological target: T1, DENV-2 NS5 RdRp; assay: Cell-based RdRp reporter assay (p(+)RLuc-(–)DV-UTRΔC-FLuc + pcDNA-NS5-Myc in Huh-7 cells); conditions: 3 days treatment
# Description: as §1
# DENV-2 NS3 protease = biological target: T2, DENV-2 NS3 protease (Dengue virus type 2, UniProt P29990); assay: Cell-based DENV protease reporter assay (pEG(MITA)SEAP + pcDNA-NS2B-GSG-NS3-Myc in Huh-7 cells); conditions: 3 days treatment, read-out: Cell-based EC50 ± SD (DENV-2 NS3 protease)
# T2 construct: DENV protease expression vector pcDNA-NS2B-GSG-NS3-Myc; expressed in transfected cells; host or cells: Huh-7
# T2 sequence (P29990 1476-2093): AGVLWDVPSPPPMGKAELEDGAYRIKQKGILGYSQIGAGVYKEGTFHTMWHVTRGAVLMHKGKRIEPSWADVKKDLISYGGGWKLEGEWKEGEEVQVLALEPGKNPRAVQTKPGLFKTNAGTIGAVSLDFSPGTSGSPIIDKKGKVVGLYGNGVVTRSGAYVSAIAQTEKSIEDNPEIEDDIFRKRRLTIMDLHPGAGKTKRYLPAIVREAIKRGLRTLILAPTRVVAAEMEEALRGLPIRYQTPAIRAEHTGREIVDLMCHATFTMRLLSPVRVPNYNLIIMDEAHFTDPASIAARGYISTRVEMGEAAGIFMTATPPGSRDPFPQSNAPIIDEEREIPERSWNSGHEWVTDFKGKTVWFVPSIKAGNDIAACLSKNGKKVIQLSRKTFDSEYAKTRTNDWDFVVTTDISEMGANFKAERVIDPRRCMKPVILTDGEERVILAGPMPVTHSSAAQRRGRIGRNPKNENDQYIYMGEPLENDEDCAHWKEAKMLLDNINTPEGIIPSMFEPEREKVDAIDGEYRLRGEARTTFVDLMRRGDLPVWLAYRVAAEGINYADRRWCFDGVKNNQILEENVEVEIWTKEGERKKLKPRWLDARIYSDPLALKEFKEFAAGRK
# Description: (§2) For cell-based activity assay, the Huh-7 cells were cotransfected with 0.5 µg of pEG(MITA)SEAP reporter vector and DENV protease expression vector pcDNA-NS2B-GSG-NS3-Myc followed by compound treatment for 3 days. The SEAP activity was analysed by Phospha-Light SEAP Reporter Gene Assay System[40]. The enzyme-based experiment was performed as previously described. Briefly, the 7-amino-4-methylcoumarin (AMC) fluorophore-linked peptide substrate Boc-GRR-AMC[41] and purified DENV NS2B/NS3pro protein were used to analyse DENV NS2B/NS3 protease activity. The 100 nM DENV NS2B/NS3pro protein was incubated with 1, 5 or 10 µM tested compound and 10 µM Boc-GRR-AMC in cleavage buffer (200 mM Tris [pH 9.5], 20% glycerol) for 30 min at 25 °C. The fluorescence signal was detected at excitation wavelength of 380 nm and emission wavelength of 465 nm, respectively.
# DENV NS2B/NS3pro protein = biological target: T3, DENV NS2B/NS3pro protein (Dengue virus type 2, UniProt P29990); assay: Enzyme-based DENV NS2B/NS3 protease assay (Boc-GRR-AMC substrate); format: biochemical; conditions: Enzyme-based EC50 ± SD (DENV-2 NS3 protease), 100 nM NS2B/NS3pro, 10 µM Boc-GRR-AMC, 30 min, 25 °C
# T3 construct: made in house; host or cells: Escherichia coli BL21 (DE3)
# T3 sequence (P29990 1346-1475): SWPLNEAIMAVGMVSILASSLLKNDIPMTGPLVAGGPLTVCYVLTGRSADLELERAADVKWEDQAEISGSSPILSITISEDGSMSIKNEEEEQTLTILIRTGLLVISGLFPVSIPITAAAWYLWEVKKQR
# T3 sequence (P29990 1476-1653): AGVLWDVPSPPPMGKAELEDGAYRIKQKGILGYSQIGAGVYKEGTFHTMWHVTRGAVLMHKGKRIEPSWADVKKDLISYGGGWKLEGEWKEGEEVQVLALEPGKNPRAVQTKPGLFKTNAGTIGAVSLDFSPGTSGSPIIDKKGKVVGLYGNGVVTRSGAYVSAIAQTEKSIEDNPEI
# Description: The DENV NS2B/NS3pro purification was performed as previously described. Briefly, the pET24b-NS2B-NS3pro plasmid was transformed into competent Escherichia coli BL21 (DE3) and grew in kanamycin (50 µg/mL)-containing LB at 26 °C until OD600 nm reached 0.6. The isopropyl-β-D-thiogalactopyranose was added into the bacterial culture at 0.5 mM for protein induction. After 12-h incubation, cells were collected and subjected to protein purification following previous description.
# as §2
# [6] = 10 mg/kg intracerebral injection at 1, 3, 5 dpi
# [7] = Dengue virus, DENV2, Huh-7, 72 h, Huh-7 cells infected with DENV-2 at MOI 0.2, 3 days treatment, qRT-PCR with primers targeting NS5, normalised to GAPDH, read-out: EC50 ± SD (DENV-2 RNA)
# [8] = Huh-7 cells infected with DENV-2 at MOI 0.2, 3 days treatment, qRT-PCR with primers targeting NS5, normalised to GAPDH, read-out: EC50 ± SD (DENV-2 RNA)
# [9] = read-out: Enzyme-based EC50 ± SD (DENV-2 NS5 RdRp)
# [10] = read-out: EC50 ± SD (DENV-2 RNA), Huh-7 cells infected with DENV-2 at MOI 0.2, 3 days treatment, qRT-PCR with primers targeting NS5, normalised to GAPDH
# [11] = Cell-based EC50 ± SD (DENV-2 NS5 RdRp)
# [12] = Dengue virus, DENV2, Huh-7, 72 h, read-out: EC50 ± SD (DENV-2 RNA), Huh-7 cells infected with DENV-2 at MOI 0.2, 3 days treatment, qRT-PCR with primers targeting NS5, normalised to GAPDH
# [13] = 1 mg/kg intracerebral injection at 1, 3, 5 dpi
SMILES,CC50 at 3 days [1],EC50 (DENV-2 NS5 RdRp [2]; Enzyme-based EC50 ± SD (DENV-2 NS5 RdRp)),Clinical scores and body weight (DENV-induced pathology) (DENV-2 [3]; [6]),Survival rate (DENV-2 [3]; [6]),"SI (selectivity index, CC50/EC50 ratio) (DENV-2 [4])",EC50 (DENV-2 [4]; [7]),EC50 (DENV-2 [4]; [8]),EC50 (DENV-2 NS5 RdRp [5]; read-out: Cell-based EC50 ± SD (DENV-2 NS5 RdRp)),EC50 (DENV-2 NS5 RdRp [2]; [9]),EC50 (DENV-2 [4]; [10]),EC50 (DENV-2 NS5 RdRp [5]; [11]),EC50 (DENV-2 NS3 protease),EC50 (DENV-2 [4]; [12]),Clinical scores and body weight (DENV-induced pathology) (DENV-2 [3]; [13]),Survival rate (DENV-2 [3]; [13]),EC50 (DENV NS2B/NS3pro protein)
"CCOC(=O)c1cnn(-c2ccccc2)c1N(S(=O)(=O)c1ccc([N+](=O)[O-])cc1)S(=O)(=O)c1ccc([N+](=O)[O-])cc1 [Compound 3, Ethyl 5–(4-nitro-N-((4-nitrophenyl)sulphonyl)phenylsulphonamido)-1-phenyl-1H-pyrazole-4-carboxylate]",> 200 µM,4.87 µM and 4.9 µM,reduced DENV-induced pathology,significantly protected the mice,>35.1,5.66 ± 0.25 µM,5.7 ± 0.3 µM,5.99 µM and 6 µM,–,–,–,–,–,–,–,–
"CCOC(=O)c1cnn(C)c1N(S(=O)(=O)c1ccc(Cl)cc1)S(=O)(=O)c1ccc(Cl)cc1 [Compound 1, Ethyl 5–(4-chloro-N-((4-chlorophenyl)sulphonyl)phenylsulphonamido)-1-methyl-1H-pyrazole-4-carboxylate]",196 µM,–,–,–,17.7,11.1 ± 0.21 µM,–,–,7.78 µM and 7.8 µM,11.7 ± 0.2 µM,8.07 µM and 8.1 µM,–,–,–,–,–
"COC(=O)c1[nH]c2ccc(Cl)cc2c1Cc1cc(OC)cc(OC)c1 [Compound 5, Methyl 5-chloro-3–(3,5-dimethoxybenzyl)-1H-indole-2-carboxylate]",> 200 µM,–,–,–,> 27.4,–,–,–,–,7.3 ± 0.3 µM,–,7.92 µM and 7.9 µM,7.28 ± 0.13 µM,–,–,–
"COC(=O)c1[nH]c2ccc(Cl)cc2c1C(=O)c1cc(OC)c(O)c(OC)c1 [Compound 4, Methyl 5-chloro-3–(4-hydroxy-3,5-dimethoxybenzoyl)-1H-indole-2-carboxylate]",181 µM,–,–,–,39.3,–,–,–,–,–,–,6.71 µM and 6.7 µM,4.6 ± 0.3 µM,reduced DENV-induced pathology,significantly protected the mice,4.72 µM and 4.7 µM
"CCOC(=O)c1cnn(C)c1NS(=O)(=O)c1ccc(-n2cccc2C(=O)c2ccccc2)cc1 [Compound 2, Ethyl 5–(4-(2-benzoyl-1H-pyrrol-1-yl)phenylsulphonamido)-1-methyl-1H-pyrazole-4-carboxylate]",> 200 µM,–,–,–,>26.3,7.61 ± 0.36 µM,7.6 ± 0.4 µM,–,5.34 µM and 5.3 µM,–,7.22 µM and 7.2 µM,–,–,–,–,–
